Reference: patent publication US20220054513A1, “COMBINATION COMPOSITIONS COMPRISING A BETA-LACTAMASE INHIBITOR” (VenatoRx Pharmaceuticals, Inc., priority 2018, published 2022)

System: β-lactamase expressing Enterobacteriaceae
Assay: broth microdilution MIC of cefiderocol +/- Compound 1, panel of 30 Enterobacteriaceae strains (MIC50/MIC90)
Format: cell-based

For `CC(C)(O/N=C(\C(=O)N[C@@H]1C(=O)N2C(C(=O)[O-])=C(C[N+]3(CCNC(=O)c4ccc(O)c(O)c4Cl)CCCC3)CS[C@H]12)c1csc(N)n1)C(=O)O` [FDC, cefiderocol], the MIC50 (IDM) was 0.5 µg/mL, the MIC90 (IDM) was 4 µg/mL and the MIC50 (MHBII) was 4 µg/mL. For the same molecule, the MIC90 (MHBII) was 32 µg/mL.
